Data as given in patent US11186578B2, “Substituted pyrrolo[3,2-d]pyrimidines and pyrazolo[4,3-d]pyrimidines as tyrosine kinase inhibitors” (Shenzhen TargetRx, Inc., priority 2016, dated 2021).

Assays:
in vivo = details: male, Sprague-Dawley, rat
[1] = Metabolic stability in rat liver microsomes; assay type: in vitro ADME, SD rat; details: Sprague-Dawley, pH 7.4, 1 μM compound, 0.5 mg/mL protein
Experimental: (§1) (2) Metabolic Stability Evaluation Experiments in Microsome:
(§2) 2) Preparation of phosphate buffer (100 mM, pH 7.4): 150 mL of pre-formulated 0.5 M potassium dihydrogen phosphate was taken and mixed with 700 mL of 0.5 M dipotassium hydrogen phosphate solution, and the pH of the mixture was adjusted to 7.4 with 0.5 M dipotassium hydrogen phosphate solution. Before use it was diluted by 5 times with ultrapure water, and magnesium chloride was added to obtain the phosphate buffer (100 mM), which contains 100 mM potassium phosphate, 3.3 mM magnesium chloride, and a pH of 7.4. […] 4) Preparation of stop solution: The stop solution was an acetonitrile solution containing 50 ng/mL propranolol hydrochloride and 200 ng/mL tolbutamide (internal standard). […] 6) Incubation of the sample: The stock solutions of the corresponding compounds were diluted to 0.25 mM with an aqueous solution containing 70% acetonitrile, which is used as a working solution and is ready for use. 398 μL of human liver microsomes dilution or rat liver microsome dilution was added to 96-well incubation plates (N=2), and 2 μL of 0.25 mM working solutions were added respectively, and evenly mixed. 7) Determination of metabolic stability: 300 μL of pre-cooled stop solution was added to each well of a 96-well deep well plate, which was placed on ice as a stop plate. The 96-well incubation plate and the NADPH regeneration system were placed in a 37° C. water bath, shaken at 100 rpm, and pre-incubated for 5 min. 80 μL of the incubation solution was taken from each well of the incubation plate, added to the stop plate, evenly mixed, and 20 μL of the NADPH regeneration system solution was added as 0 minute sample. Then, 80 μL of the NADPH regeneration system solution was added to each well of the incubation plate to start the reaction and start timing. […] 100 μL of the reaction solutions were taken at 10, 30, and 90 min, respectively, added to the stop place, and the reaction was terminated by vortexing for 3 min. The plate was centrifuged at 5000×g for 10 min at 4° C. 100 μL of the supernatant was taken and added into a 96-well plate to which 100 μL of distilled water was previously added, evenly mixed, and samples were analyzed by LC-MS/MS. 8) Data analysis: The peak area of the corresponding compounds and the internal standard was detected by LC-MS/MS system, and the ratio of the peak area of the compounds to the internal standard was calculated.

[2] = Metabolic stability in human liver microsomes; assay type: in vitro ADME; details: pH 7.4, 1 μM compound, 0.5 mg/mL protein
Experimental: as §1, §2

[3] = male, Sprague-Dawley, rat, in vivo
BTK = BTK (Homo sapiens (Human), UniProt Q06187); assay: Kinase inhibition test (HTRF); assay type: biochemical; details: 1 nM BTK, 20 μM ATP
Experimental: (1) Kinase Inhibition Test
1) Compound dilution: The test compounds were dissolved in DMSO to make a 10 mM stock solution. […] 2) Kinase assay: in a 10 μL reaction system (containing buffer 50 mM Hepes (pH 7.5), 5 mM MgCl2, 0.01 mM Na3VO4, 1% BSA) in a 384-well plate, 1 nM BTK, 1 μM biotin-TK peptide (from HTRF-TK kit) and 20 μM ATP were incubated at 23° C. for 90 minutes.

RAMOS = RAMOS IC50; assay type: cell-based; details: Homo sapiens
[4] = Pharmacokinetic experiments in rats; details: male, Sprague-Dawley, rat, in vivo

Chain of BTK (Q06187 whole entry): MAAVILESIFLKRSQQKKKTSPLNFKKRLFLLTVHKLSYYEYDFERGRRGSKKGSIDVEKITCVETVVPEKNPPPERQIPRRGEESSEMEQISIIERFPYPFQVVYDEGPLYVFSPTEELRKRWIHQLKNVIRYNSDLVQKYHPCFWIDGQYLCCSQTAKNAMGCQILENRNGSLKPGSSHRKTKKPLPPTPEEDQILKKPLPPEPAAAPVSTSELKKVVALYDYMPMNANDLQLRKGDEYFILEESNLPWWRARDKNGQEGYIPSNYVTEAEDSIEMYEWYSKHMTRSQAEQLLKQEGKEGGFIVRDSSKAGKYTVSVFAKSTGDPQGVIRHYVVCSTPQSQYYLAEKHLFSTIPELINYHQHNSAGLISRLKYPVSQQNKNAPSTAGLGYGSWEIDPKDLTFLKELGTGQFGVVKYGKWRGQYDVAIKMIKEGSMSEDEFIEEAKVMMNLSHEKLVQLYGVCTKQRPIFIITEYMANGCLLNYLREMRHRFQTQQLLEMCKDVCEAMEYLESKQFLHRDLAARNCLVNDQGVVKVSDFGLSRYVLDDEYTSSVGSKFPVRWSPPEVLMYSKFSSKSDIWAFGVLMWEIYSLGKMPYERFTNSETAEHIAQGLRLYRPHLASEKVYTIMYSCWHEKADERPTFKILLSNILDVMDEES

Row | half-life at 1 μM [1] [min] | microsomal CLint at 1 μM [1] [µL/min/mg] | half-life at 1 μM [2] [min] | microsomal CLint at 1 μM [2] [µL/min/mg] | IC50 (BTK) [nM] | IC50 (RAMOS) [nM] | SMILES | AUC(0-t) (in vivo; iv, 0.5 mg/kg) [ng·h/mL] | Cmax (in vivo; iv, 0.5 mg/kg) [ng/mL] | Tmax (in vivo; iv, 0.5 mg/kg) [min] | AUC(0-t) (in vivo; po, 10 mg/kg) [ng·h/mL] | Cmax (in vivo; po, 10 mg/kg) [ng/mL] | Tmax (in vivo; po, 10 mg/kg) [min] | F [3] [%] | AUC(0-t) ([4]; iv, 0.5 mg/kg) [ng·h/mL] | Cmax ([4]; iv, 0.5 mg/kg) [ng/mL] | Tmax ([4]; iv, 0.5 mg/kg) [min] | AUC(0-t) ([4]; po, 10 mg/kg) [ng·h/mL] | Cmax ([4]; po, 10 mg/kg) [ng/mL] | Tmax ([4]; po, 10 mg/kg) [min]
1 |  |  | 1.3 | 1100 | < 1 | < 100 | C=CC(=O)N1CCC[C@@H](c2cn(-c3ccc(Oc4ccccc4)cc3)c3c(N)ncnc23)C1 [Example 3, (S)-1-(3-(4-amino-5-(4-phenoxyphenyl)-5H-pyrrolo[3,2-d]pyrimidin-7-yl)piperidin-1-yl)prop-2-en-1-one] |  |  |  |  |  |  |  |  |  |  |  |  | 
2 | 2.9 | 483 | 3.5 | 399 | < 1 | < 100 | C=CC(=O)N1CCC[C@H](c2cn(-c3ccc(Oc4ccccc4)cc3)c3c(N)ncnc23)C1 [Example 4, (R)-1-(3-(4-amino-5-(4-phenoxyphenyl)-5H-pyrrolo[3,2-d]pyrimidin-7-yl)piperidin-1-yl)prop-2-en-1-one] |  |  |  |  |  |  |  |  |  |  |  |  | 

Second part, the compound before the results:

Row | SMILES | half-life at 1 μM [1] [min] | microsomal CLint at 1 μM [1] [µL/min/mg] | half-life at 1 μM [2] [min] | microsomal CLint at 1 μM [2] [µL/min/mg] | IC50 (BTK) [nM] | IC50 (RAMOS) [nM] | AUC(0-t) (in vivo; iv, 0.5 mg/kg) [ng·h/mL] | Cmax (in vivo; iv, 0.5 mg/kg) [ng/mL] | Tmax (in vivo; iv, 0.5 mg/kg) [min] | AUC(0-t) (in vivo; po, 10 mg/kg) [ng·h/mL] | Cmax (in vivo; po, 10 mg/kg) [ng/mL] | Tmax (in vivo; po, 10 mg/kg) [min] | F [3] [%] | AUC(0-t) ([4]; iv, 0.5 mg/kg) [ng·h/mL] | Cmax ([4]; iv, 0.5 mg/kg) [ng/mL] | Tmax ([4]; iv, 0.5 mg/kg) [min] | AUC(0-t) ([4]; po, 10 mg/kg) [ng·h/mL] | Cmax ([4]; po, 10 mg/kg) [ng/mL] | Tmax ([4]; po, 10 mg/kg) [min]
3 | C=CC(=O)N1CCC[C@@H](c2nc(-c3ccc(Oc4ccccc4)cc3)c3c(N)nccn23)C1 [Example 7, (R)-1-(3-(8-amino-1-(4-phenoxyphenyl)imidazo[1,5-a]pyrazin-3-yl)piperidin-1-yl)prop-2-en-1-one] | 2.4 | 576 | 5.7 | 243 | < 1 | < 100 | 401 | 966 | 4.8 | 931 | 365 | 40.2 | 23.20 |  |  |  |  |  | 
4 | C=CC(=O)N1CCC[C@@H](c2nn(-c3ccc(Oc4ccccc4)cc3)c3c(N)ncnc23)C1 [Example 5, (R)-1-(3-(7-amino-1-(4-phenoxyphenyl)-1H-pyrazolo[4,3-d]pyrimidin-3-yl)piperidin-1-yl)prop-2-en-1-one] |  |  | 1.5 | 922 | < 1 | < 100 |  |  |  |  |  |  |  |  |  |  |  |  | 
5 | C=CC(=O)N1CCC[C@@H](n2nc(-c3ccc(Oc4ccccc4)cc3)c3c(N)ncnc32)C1 [Ibrutinib] |  |  |  |  |  | < 100 |  |  |  |  |  |  |  | 437 | 1230 | 4.8 | 727 | 250 | 30
6 | C=CC(=O)N1CCC[C@H](c2nn(-c3ccc(Oc4ccccc4)cc3)c3c(N)ncnc23)C1 [Example 6, (S)-1-(3-(7-amino-1-(4-phenoxyphenyl)-1H-pyrazolo[4,3-d]pyrimidin-3-yl)piperidin-1-yl)prop-2-en-1-one] | 4.1 | 338 | 12.5 | 111 | < 1 | < 100 |  |  |  |  |  |  |  |  |  |  |  |  | 
